Tests used:
[1] = Distribution coefficient in n-heptane/isopropanol/water phase system; assay type: physicochemical; settings: lighter phase about 90% n-heptane/10% isopropanol; heavier phase about 32% isopropanol/68% water
Text: The present applicants have found an n-heptane/isopropanol/water system to be effective for purifying 33-epi-chloro-33-desoxyascomycin. In one embodiment, the following phase system is used to purify 33-epi-chloro-33-desoxyascomycin: the lighter phase comprises a mixture in weight-% of about 90% n-heptane, e.g. 89%, and about 10% isopropanol, e.g. 11%; the heavier hase comprises a mixture of about 32% isopropanol, e.g. 31%, and about 68% water, e.g. 69%.
The distribution coefficient is defined herein as the ratio of the concentration (in g/unit volume) of product in the lighter phase to the concentration (in g/unit volume) of product in the heavier aqueous phase at 40° C. The following distribution coefficients are obtained for cyclosporins between 75% n-heptane /25% acetone as lighter organic phase, and 50% acetone 50% water as heavier aqueous phase:
The distribution coefficient for 33-epi-chloro-33-desoxyascomycin is found to be around 7.6 using the above n-heptane/isopropanol/water phase system. The selectivity of ascomycin derivative side product to 33-epi-chloro-33-desoxyascomycin is found to be approximately 1.44.

[2] = Distribution coefficient of cyclosporins between lighter organic phase and heavier aqueous phase (n-heptane/acetone/water); assay type: physicochemical; settings: conc. in lighter phase / conc. in heavier aqueous phase at 40° C.; 75% n-heptane/25% acetone vs 50% acetone/50% water
Experimental: The distribution coefficient is defined herein as the ratio of the concentration (in g/unit volume) of product in the lighter phase to the concentration (in g/unit volume) of product in the heavier aqueous phase at 40° C.

CC[C@@H]1/C=C(\C)C[C@H](C)C[C@H](OC)[C@H]2O[C@@](O)(C(=O)C(=O)N3CCCC[C@H]3C(=O)O[C@H](/C(C)=C/[C@@H]3CC[C@H](Cl)[C@H](OC)C3)[C@H](C)[C@@H](O)CC1=O)[C@H](C)C[C@@H]2OC [33-epi-chloro-33-desoxyascomycin]
Distribution coefficient [1]: around 7.6

C/C=C/C[C@@H](C)[C@@H](O)[C@H]1C(=O)N[C@@H](C)C(=O)N(C)CC(=O)N(C)[C@@H](CC(C)C)C(=O)N[C@@H](C(C)C)C(=O)N(C)[C@@H](CC(C)C)C(=O)N[C@@H](C)C(=O)N[C@H](C)C(=O)N(C)[C@@H](CC(C)C)C(=O)N(C)[C@@H](CC(C)C)C(=O)N(C)[C@@H](C(C)C)C(=O)N1C [Cyclosporin B]
Distribution coefficient (to one decimal place) [2]: 0.4

C/C=C/C[C@@H](C)[C@@H](O)[C@H]1C(=O)N[C@@H]([C@@H](C)O)C(=O)N(C)CC(=O)N(C)[C@@H](CC(C)C)C(=O)N[C@@H](C(C)C)C(=O)N(C)[C@@H](CC(C)C)C(=O)N[C@@H](C)C(=O)N[C@H](C)C(=O)N(C)[C@@H](CC(C)C)C(=O)N(C)[C@@H](CC(C)C)C(=O)N(C)[C@@H](C(C)C)C(=O)N1C [Cyclosporin C]
Distribution coefficient (to one decimal place) [2]: 0.3

C/C=C/C[C@@H](C)[C@@H](O)[C@H]1C(=O)N[C@@H](C(C)C)C(=O)N(C)CC(=O)N(C)[C@@H](CC(C)C)C(=O)N[C@@H](C(C)C)C(=O)N(C)[C@@H](CC(C)C)C(=O)N[C@@H](C)C(=O)N[C@H](C)C(=O)N(C)[C@@H](CC(C)C)C(=O)N(C)[C@@H](CC(C)C)C(=O)N(C)[C@@H](C(C)C)C(=O)N1C [Cyclosporin D]
Distribution coefficient (to one decimal place) [2]: 1.7

CCCC[C@@H](C)[C@@H](O)[C@H]1C(=O)N[C@@H](CC)C(=O)N(C)CC(=O)N(C)[C@@H](CC(C)C)C(=O)N[C@@H](C(C)C)C(=O)N(C)[C@@H](CC(C)C)C(=O)N[C@@H](C)C(=O)N[C@H](C)C(=O)N(C)[C@@H](CC(C)C)C(=O)N(C)[C@@H](CC(C)C)C(=O)N(C)[C@@H](C(C)C)C(=O)N1C [Cyclosporin Dihydro-A, dihydro-Cyclosporin A]
Distribution coefficient (to one decimal place) [2]: 1.0

C/C=C/C[C@@H](C)[C@@H](O)[C@H]1C(=O)N[C@@H](CCC)C(=O)N(C)CC(=O)N(C)[C@@H](CC(C)C)C(=O)N[C@@H](C(C)C)C(=O)N(C)[C@@H](CC(C)C)C(=O)N[C@@H](C)C(=O)N[C@H](C)C(=O)N(C)[C@@H](CC(C)C)C(=O)N(C)[C@@H](CC(C)C)C(=O)N(C)[C@@H](C(C)C)C(=O)N1C [Cyclosporin G]
Distribution coefficient (to one decimal place) [2]: 1.3

C/C=C/C[C@@H](C)[C@@H](O)[C@@H]1NC(=O)[C@H](C(C)C)N(C)C(=O)[C@H](CC(C)C)N(C)C(=O)[C@H](CC(C)C)N(C)C(=O)[C@@H](C)NC(=O)[C@H](C)NC(=O)[C@H](CC(C)C)N(C)C(=O)[C@H](C(C)C)NC(=O)[C@H](CC(C)C)N(C)C(=O)CN(C)C(=O)[C@H](CC)NC1=O [Cyclosporin L]
Distribution coefficient (to one decimal place) [2]: 0.5

C/C=C/C[C@@H](C)[C@@H](O)[C@H]1C(=O)N[C@@H](CC)C(=O)N(C)CC(=O)N(C)[C@@H](CC(C)C)C(=O)N[C@@H](C(C)C)C(=O)N[C@@H](CC(C)C)C(=O)N[C@@H](C)C(=O)N[C@H](C)C(=O)N(C)[C@@H](CC(C)C)C(=O)N(C)[C@@H](CC(C)C)C(=O)N(C)[C@@H](C(C)C)C(=O)N1C [Cyclosporin U]
Distribution coefficient (to one decimal place) [2]: 0.6
